{
  "source": "paper PMC5515844",
  "about": "“A new Prenylated Flavonoid induces G0/G1 arrest and apoptosis through p38/JNK MAPK pathways in Human Hepatocellular Carcinoma cells” (Scientific Reports, 2017)",
  "key": {"HepG2": {"test_system": "HepG2", "test": "MTT cytotoxicity assay", "assay_type": "cell-based, human", "conditions": "Homo sapiens, HepG2; MTT, 48 h, mean ± SD", "experimental": "(§1) HepG2 and Hep3B (human hepatoma cells), Bcap37 and MCF-7 (human breast cancer cells), TE-1 (human esophageal cancer cells), A549 (human lung carcinoma cells), U251 and U87 (human glioma cells), were cultured in Dulbecco’s modified Eagle’s medium (DMEM) supplemented with 10% fetal bovine serum (FBS) and 1% penicillin/streptomycin (10000 U/mL penicillin, 10000 μg/ml streptomycin). SH-SY5Y (human neuroblastoma cells), LO2 (human normal liver cell) were grown in RPMI 1640 containing 10% FBS and 100 µg/ml penicillin, 100 µg/ml streptomycin. HepG2, Hep3B, MCF-7, TE-1, A549, U87, U251 and SHSY5Y cells were obtained from the American Type Culture Collection (Manassas, VA, USA). Bcap37 and LO2 cells were purchased from the Cell Bank of Chinese Academy of Sciences (Shanghai, China). All cells were incubated in a humidified atmosphere containing 5% CO2 at 37 °C.\n(§2) Cells seeded in 96-well plates with 5 × 10^3 cells/well were adhered overnight and incubated with vehicle control (DMSO) or diverse concentrations of compounds for 48 h. After treatment, 20 μL of MTT (5 mg/mL) was added to each well and incubated for another 4 h at 37 °C. Then, 150 μL of DMSO/well was appended after removed the supernatant to dissolve the formed purple formazan crystals and the color absorbance was measured at 490 nm using a microplate reader (Molecular Devices, Thermo, CA, USA). The inhibition rate (%) was calculated as (A490(control) − A490(drug groups))/(A490(control) − A490(blank)) × 100 and the value of IC50 (the concentration that caused 50% inhibition of cell viability) was determined using SPSS 20.0. This experiment was measured in triplicate, independently."}, "Hep3B": {"test_system": "Hep3B", "test": "MTT cytotoxicity assay", "assay_type": "cell-based, human", "conditions": "Homo sapiens, 48 h, mean ± SD", "experimental": "as §1, §2"}, "Hep3B xenografts": {"test_system": "Hep3B xenografts", "test": "In vivo antitumor activity, nude mouse xenograft model", "set-up": "species or system BALB/c nude mice", "conditions": "for inhibition rate of the tumor volume: vs vehicle group", "experimental": "All of the animal studies and procedures were conducted in accordance with the approval and guidelines of the Shenyang Pharmaceutical University Institutional Animal Care and Use Committee (permission number: SCXK (Jing) 2014-0004). Male BALB/c nude mice at the age of six weeks were obtained from Beijing HFK Bioscience Co., Ltd (Beijing, China). Hep3B cells (1 × 10^5 cells) were implanted subcutaneously into the right backsides of each nude mouse. After 12 days, when the tumor size reached about 100 mm^3, the mice were randomly divided into three groups (n = 6) and intraperitoneally injected with vehicle control or daphnegiravone D (5 and 10 mg/kg body weight) every two days for two weeks. The body weight and tumor sizes were measured every day, and the tumor volume was determined by caliper measurements and calculated by the formula: 0.5236 × L × W ^2, where L is the long axis and W is the short axis of the tumor. The experiment was terminated when the tumors volume of the control group reached about 3000 mm^3. The mice were sacrificed, and the tumors, hearts, livers, spleens, lungs and kidneys were excised immediately to evaluate the antitumor activity and toxicity of daphnegiravone D.\nMouse major organs (heart, liver, spleen, lung, kidney) and tumors were isolated and fixed in 10% buffered formalin for 3 days and embedded in paraffin. The tissues were sectioned at a thickness of 4 μm, and the obtained organ sections were prepared orderly by dewaxing, staining in hematoxylin and eosin-phloxine solution, then dehydrated and mounted with neutral resin. Subsequently, the tumor paraffin sections were deparaffinized, rehydrated, and subjected to antigen retrieval. Immunostaining was performed by the streptavidin-peroxidase (S-P) method (Ultra-sensitive; MaiXin, Fuzhou, China). The primary antibody was mouse anti-Ki67 monoclonal antibody (Maixin Biotech, Fuzhou, China). The peroxidase reaction was developed with 3,3-diaminobenzidine (Maixin Biotech, Fuzhou, China). Finally, the sections tissue morphology were observed using an OLYMPUS microscope."}, "HepG2 cells": {"test_system": "HepG2 cells", "test": "Cell cycle analysis, PI staining, flow cytometry", "assay_type": "cell-based, human", "conditions": "HepG2, different concentrations, 24 and 48 h", "experimental": "(§3) Flow cytometry was used to determine the cell cycle effects of daphnegiravone D on Hep3B and HepG2 cells. Cells were seeded (2 × 10^5 cells/well) into six-well plates with complete DMEM medium for 24 h and treated with various concentrations of daphnegiravone D for 24 and 48 h. Cells were harvested after treatment, washed with cold PBS, and fixed with 70% ethanol at 4 °C overnight. Then, resuspended cell pellets in staining buffer, blended in RNase A and PI staining for 30 min at 37 °C. Cell cycle phase was investigated using a FACSCalibur flow cytometer (BD Biosciences, New Jersey, USA). The results were analyzed with FlowJo software (v7.6.5, Tree Star, Inc.)."}, "Hep3B cells": {"test_system": "Hep3B cells", "test": "Cell cycle analysis, PI staining, flow cytometry", "assay_type": "cell-based, human", "conditions": "different concentrations, 24 and 48 h", "experimental": "as §3"}, "A549": {"test_system": "A549", "test": "MTT cytotoxicity assay", "assay_type": "cell-based", "conditions": "Homo sapiens, 48 h, mean ± SD", "experimental": "as §1, §2"}, "MCF-7": {"test_system": "MCF-7", "test": "MTT cytotoxicity assay", "assay_type": "cell-based", "conditions": "Homo sapiens, MCF7, 48 h, mean ± SD", "experimental": "as §1, §2"}, "[1]": {"test_system": "cyclin D1, cyclin E1, CDK2, CDK4, cleaved-caspase 3, PARP, p38, JNK, ERK in HepG2 cells", "test": "Western blotting analysis", "assay_type": "cell-based, human", "experimental": "(§4) Cells that after treatment were harvested and lysed by radio-immunoprecipitation assay (RIPA) buffer containing protease inhibitor (PMSF, 1 mM) on ice for 30 min. Cells lysates were centrifuged at 12,000 g for 15 min at 4 °C and following the protein concentration in the supernatant was determined using a BCA protein assay kit (Thermo Scientific, Waltham, USA), then cell extracts were added SDS-PAGE sample loading buffer and denatured at 100 °C for 10 min. Equal amount of protein (30 μg) were separated on a 8–15% SDS-PAGE and transferred onto PVDF membranes (0.2 μm, Millipore) using an electroblotting apparatus (Bio-Rad). The membranes were blocked with 5% milk in PBS-T (PBS containing 0.1% Tween 20) for 2 h at room temperature and incubated with primary antibodies at 4 °C overnight. After washed three times with PBS-T, the membranes were incubated with horseradish peroxi-dase (HRP)-conjugated secondary antibody (1:5,000) at room temperature for 2 h, then washed again, and the immunoreactive bands were detected using ECL reagents (ThermoFisher, Waltham, MA)."}, "[2]": {"test_system": "cyclin D1, cyclin E1, CDK2, CDK4, cleaved-caspase 3, PARP, p38, JNK, ERK in Hep3B cells", "test": "Western blotting analysis", "assay_type": "cell-based, human", "experimental": "as §4"}},
  "data": [
    {"smiles": "COc1c(-c2ccc(O)c(CC=C(C)C)c2)oc2c(CC=C(C)C)c(O)cc(O)c2c1=O", "note": "[Compound 1, daphnegiravone D]", "values": [
      {"measurement": "IC50", "setting": "HepG2", "value": "9.89 ± 1.02", "unit": "µM"},
      {"measurement": "IC50", "setting": "Hep3B", "value": "1.63 ± 0.56", "unit": "µM"},
      {"measurement": "inhibition rate of the tumor volume", "setting": "Hep3B xenografts; 5 mg/kg i.p. every two days for two weeks", "value": "approximately 35.9%"},
      {"measurement": "inhibition rate of the tumor volume", "setting": "Hep3B xenografts; 10 mg/kg i.p. every two days for two weeks", "value": "~50.3", "unit": "%"},
      {"measurement": "tumor volume and tumor weight", "setting": "Hep3B xenografts; 5 and 10 mg/kg i.p. every two days for two weeks", "value": "markedly decreased"},
      {"measurement": "Ki-67 labeling index (proliferation capacity of tumor)", "setting": "Hep3B xenografts; immunohistochemistry, vs vehicle control", "value": "lower proliferation capacity"},
      {"measurement": "cell cycle arrest", "setting": "HepG2 cells", "value": "significantly arrested at G0/G1 phase"},
      {"measurement": "cell cycle arrest", "setting": "Hep3B cells", "value": "significantly arrested at G0/G1 phase"},
      {"measurement": "IC50", "setting": "A549", "value": "21.8 ± 1.34", "unit": "µM"},
      {"measurement": "IC50", "setting": "MCF-7", "value": "22.3 ± 2.18", "unit": "µM"},
      {"measurement": "expression of cyclin D1", "setting": "[1]; HepG2", "value": "not significantly changed"},
      {"measurement": "phosphorylated status of ERK", "setting": "[1]; HepG2", "value": "no distinct change"},
      {"measurement": "phosphorylation level of p38", "setting": "[1]; HepG2, 48 h", "value": "markedly increased"},
      {"measurement": "levels of cleaved-caspase 3 and -PARP", "setting": "[1]; HepG2, 48 h, dose-dependent", "value": "increased"},
      {"measurement": "level of phosphorylated JNK", "setting": "[1]; HepG2, dose-dependent", "value": "dramatically reduced"},
      {"measurement": "levels of cyclin E1, CDK2 and CDK4", "setting": "[1]; HepG2, dose-dependent", "value": "decreased"},
      {"measurement": "expression of cyclin D1", "setting": "[2]", "value": "not significantly changed"},
      {"measurement": "phosphorylated status of ERK", "setting": "[2]", "value": "no distinct change"},
      {"measurement": "phosphorylation level of p38", "setting": "[2]; 48 h", "value": "markedly increased"},
      {"measurement": "levels of cleaved-caspase 3 and -PARP", "setting": "[2]; 48 h, dose-dependent", "value": "increased"},
      {"measurement": "level of phosphorylated JNK", "setting": "[2]; dose-dependent", "value": "dramatically reduced"},
      {"measurement": "levels of cyclin E1, CDK2 and CDK4", "setting": "[2]; dose-dependent", "value": "decreased"}
    ]}
  ]
}
